Test results: US20100003217A1, “Compounds and Pharmaceutical Compositions for the Treatment of Viral Infections” (priority 2008, published 2010)
Values joined by “and” are separate entries in the source; they are usually repeats but may differ in a detail not shown here. Identical values can stand only once.

How the values were obtained:
[1] = test system: monkey primary hepatocytes; test: Metabolic disposition of [^14C]-Compound 1 and [^14C]-2′-C-methyl guanosine in monkey primary hepatocytes (incubation medium, cellular extracts, nucleotide levels); type: in vitro ADME, Cynomolgus monkey; conditions: for Major metabolites observed in cellular extracts (% of total radioactivity): 10 μM [^14C]-2′-C-methyl guanosine
Description: (§1) Primary hepatocytes: Freshly isolated cells from animal and human liver were obtained in suspension on ice. Cells were pelleted by centrifugation at 70-75×g (rat) or 95-90×g (monkey and human) and resuspended at 0.8 million cells per mL of platting medium (William's E supplemented with 5% FBS, 0.5% penicillin-streptomycin, 1% L-glutamine, 4 μg/mL insulin and 1 μM dexamethasone). Multi-well collagen I-coated plates (rat tail collagen type I; 12- or 6-well) were then seeded by addition of 1 mL (12-well; 0.8 million cells/well) or 2 mL (6-well; 1.6 million cells/well) of cell suspension. The plates were gently shaken to evenly distribute the cells and placed in an incubator at 37° C. for approximately 4 to 6 hours to allow cells to attach. Once cells were attached, the platting medium was removed and replaced with hepatocyte culture medium (William's E supplemented with penicillin-streptomycin, 1% L-glutamine, 1% insulin-transferrin-selenium and 0.1 μM dexamethasone). Cells were left overnight in an incubator at 37° C. to acclimatize to culture and the medium.
(§2) Hepatocyte incubations with radiolabeled Compound 1 and 2′-C-methyl guanosine, both labeled in the C-8 position of the guanine moiety, were conducted at a final volume of 2.0 mL hepatocyte culture medium/well ([…]). Culture medium from overnight incubation of cells was removed and replaced with fresh medium, pre-warmed to 37° C., containing 1 or 10 μM [^14C]-Compound 1 ([…]) or [^14C]-2′-C-methyl guanosine (127 DPM/μmol) from a stock solution in DMSO (final DMSO concentration was 0.1%) or 50% ethanol (final ethanol concentration was 0.2%). After 1, 4, 8 and 24 hours, 0.5-1.0 mL of incubation medium was removed and stored at −20° C. until analysis (described below). The remaining medium was discarded and cell monolayers were carefully washed two times with ice-cold PBS. Following the last wash, all PBS was carefully removed and 1.0 mL of extraction solution (ice-cold 70% methanol) added. Cells were scrapped off and suspended in the extraction solution, transferred to 2 mL polypropylene microfuge tubes and intracellular contents extracted overnight at −20° C.
(§3) Preliminary identification of putative metabolites was conducted by comparing the retention time of observed metabolites in incubation medium and cellular extracts with retention times obtained with chemically synthesized standards using the chromatography conditions described below. Further identification of 2′-C-methyl guanosine nucleotides (mono-, di- and triphosphate) was carried out by incubating cellular extract samples with alkaline phosphatase (10 units for 60 min at 37° C.) and comparing the HPLC retention times of the resulting nucleosides with that of authentic 2′-C-methyl guanosine.
(§4) Cellular extracts were prepared by centrifugation at 16,000 RCF using an Eppendorf microcentrifuge (Eppendorf, Model 5415D) for 10 min to remove cellular debris. An aliquot of 5-10 μL of the supernatant was added to 5 mL of EcoLite™ (MP, Irvine, Calif.) liquid scintillation cocktail and radioactivity measured by liquid scintillation counting (LSC) using a Beckman Coulter LS6500 multipurpose liquid scintillation counter (Beckman Instruments, Fullerton, Calif.). The remaining sample was then dried using a Labconco refrigerated centrivap concentrator (Labconco, Kansas City, Mo.). Dry extracts were reconstituted in 120 μL of HPLC-grade water and centrifuged at 16,000 RCF using an Eppendorf microcentrifuge for 10 min. Prior to HPLC analysis (described below), radioactivity of the concentrated extracts was measured by LSC using 5 μL aliquots. Extraction recovery was then determined by comparing total radioactivity in extracts before and after drying. The remaining extract was then analyzed by HPLC with online radioactivity detection using a Flow Scintillation Analyzer Radiomatic™ 515TR. Radioactivity in the separated components was quantified by integrating the peaks using Flo-One™ Software (Perkin Elmer Life Sciences). […]

rat primary hepatocytes = test: Metabolic disposition of [^14C]-Compound 1 and [^14C]-2′-C-methyl guanosine in rat primary hepatocytes (incubation medium, cellular extracts, nucleotide levels); type: in vitro ADME, Sprague Dawley rat
Description: as §1, §2, §3, §4

[2] = rat hepatocytes (Rs458), 1 μM [^14C]-Compound 1, 1 h
[3] = rat hepatocytes (Rs458), 1 μM [^14C]-Compound 1, 8 h
[4] = rat hepatocytes (Rs458), 1 μM [^14C]-Compound 1, 24 h

- metabolites observed in cellular extracts (% of total radioactivity) ([1]; monkey hepatocytes (Cy230, Cy234), 10 μM [^14C]-Compound 1, 1 h): 1.68% and 3.04%
- metabolites observed in cellular extracts (% of total radioactivity) ([1]; monkey hepatocytes (Cy230, Cy234), 10 μM [^14C]-Compound 1, 8 h): 0.95% and 2.06%
- metabolites observed in cellular extracts (% of total radioactivity) ([1]; monkey hepatocytes (Cy230, Cy234), 10 μM [^14C]-Compound 1, 24 h): 2.31% and 1.25%
- metabolites observed in cellular extracts (% of total radioactivity) ([1]; monkey hepatocytes (Cy234), 10 μM [^14C]-Compound 1, 4 h): 1.35%
- metabolites observed in medium (% of total radioactivity) ([1]; monkey hepatocytes (lot Cy234), 10 μM [^14C]-Compound 1, 4 h): 6.8%
- metabolites observed in medium (% of total radioactivity) ([1]; monkey hepatocytes (lots Cy230, Cy234), 10 μM [^14C]-Compound 1, 0 h): BLD^c and BLD
- metabolites observed in medium (% of total radioactivity) ([1]; monkey hepatocytes (lots Cy230, Cy234), 10 μM [^14C]-Compound 1, 8 h): 10.4% and 14.8%
- metabolites observed in medium (% of total radioactivity) ([1]; monkey hepatocytes (lots Cy230, Cy234), 10 μM [^14C]-Compound 1, 24 h): 48.8% and 35.6%
- Major metabolites observed in cellular extracts (% of total radioactivity) ([1]; monkey hepatocytes Cy230, 1 h): 96.4 % of total radioactivity
- Major metabolites observed in cellular extracts (% of total radioactivity) ([1]; monkey hepatocytes Cy230, 8 h): 77.3 % of total radioactivity
- Major metabolites observed in cellular extracts (% of total radioactivity) ([1]; monkey hepatocytes Cy230, 24 h): 65.0 % of total radioactivity
- Major metabolites observed in cellular extracts (% of total radioactivity) ([1]; monkey hepatocytes Cy234, 1 h): 86.9 % of total radioactivity
- Major metabolites observed in cellular extracts (% of total radioactivity) ([1]; monkey hepatocytes Cy234, 4 h): 57.9 % of total radioactivity
- Major metabolites observed in cellular extracts (% of total radioactivity) ([1]; monkey hepatocytes Cy234, 8 h): 45.8 % of total radioactivity
- Major metabolites observed in cellular extracts (% of total radioactivity) ([1]; monkey hepatocytes Cy234, 24 h): 29.0 % of total radioactivity
- metabolites observed in cellular extracts (% of total radioactivity) (rat primary hepatocytes; rat hepatocytes (Rs448, Rs458), 10 μM [^14C]-Compound 1, 1 h): 1.84% and 1.75%
- metabolites observed in cellular extracts (% of total radioactivity) (rat primary hepatocytes; rat hepatocytes (Rs448, Rs458), 10 μM [^14C]-Compound 1, 4 h): 5.04% and 3.78%
- metabolites observed in cellular extracts (% of total radioactivity) (rat primary hepatocytes; rat hepatocytes (Rs448, Rs458), 10 μM [^14C]-Compound 1, 8 h): 8.77% and 4.95%
- metabolites observed in cellular extracts (% of total radioactivity) (rat primary hepatocytes; rat hepatocytes (Rs448, Rs458), 10 μM [^14C]-Compound 1, 24 h): 14.7% and 16.9%
- metabolites observed in medium (% of total radioactivity) (rat primary hepatocytes; rat hepatocytes (Rs458), 1 μM [^14C]-Compound 1, 0 h): BLD
- metabolites observed in cellular extracts (% of total radioactivity) (rat primary hepatocytes; [2]): 1.01%
- metabolites observed in medium (% of total radioactivity) (rat primary hepatocytes; [2]): BLD
- metabolites observed in cellular extracts (% of total radioactivity) (rat primary hepatocytes; [3]): 5.58%
- metabolites observed in medium (% of total radioactivity) (rat primary hepatocytes; [3]): 29.4%
- metabolites observed in cellular extracts (% of total radioactivity) (rat primary hepatocytes; [4]): 13.1%
- metabolites observed in medium (% of total radioactivity) (rat primary hepatocytes; [4]): 58% and 58.3%
- metabolites observed in medium (% of total radioactivity) (rat primary hepatocytes; rat hepatocytes (lots Rs448, Rs458), 10 μM [^14C]-Compound 1, 0 h): BLD^b and BLD
- metabolites observed in medium (% of total radioactivity) (rat primary hepatocytes; rat hepatocytes (lots Rs448, Rs458), 10 μM [^14C]-Compound 1, 1 h): 0.8% and 0.5%
- metabolites observed in medium (% of total radioactivity) (rat primary hepatocytes; rat hepatocytes (lots Rs448, Rs458), 10 μM [^14C]-Compound 1, 4 h): 17.5% and 10.1% and 17.0% and 10.0%
- metabolites observed in medium (% of total radioactivity) (rat primary hepatocytes; rat hepatocytes (lots Rs448, Rs458), 10 μM [^14C]-Compound 1, 8 h): 41.5% and 23.4% and 41.0% and 23.0%
- Major metabolites observed in cellular extracts (% of total radioactivity) (rat primary hepatocytes; rat hepatocytes Rs448, 10 μM [^14C]-2′-C-methyl guanosine, 1 h): 93.6 % of total radioactivity
- Major metabolites observed in cellular extracts (% of total radioactivity) (rat primary hepatocytes; rat hepatocytes Rs448, 10 μM [^14C]-2′-C-methyl guanosine, 4 h): 78.6 % of total radioactivity
- Major metabolites observed in cellular extracts (% of total radioactivity) (rat primary hepatocytes; rat hepatocytes Rs448, 10 μM [^14C]-2′-C-methyl guanosine, 8 h): 69.2 % of total radioactivity
- Major metabolites observed in cellular extracts (% of total radioactivity) (rat primary hepatocytes; rat hepatocytes Rs448, 10 μM [^14C]-2′-C-methyl guanosine, 24 h): 51.5 % of total radioactivity
- Major metabolites observed in cellular extracts (% of total radioactivity) (rat primary hepatocytes; rat hepatocytes Rs458, 1 μM [^14C]-2′-C-methyl guanosine, 1 h): 93.4 % of total radioactivity
- Major metabolites observed in cellular extracts (% of total radioactivity) (rat primary hepatocytes; rat hepatocytes Rs458, 1 μM [^14C]-2′-C-methyl guanosine, 8 h): 68.7 % of total radioactivity
- Major metabolites observed in cellular extracts (% of total radioactivity) (rat primary hepatocytes; rat hepatocytes Rs458, 1 μM [^14C]-2′-C-methyl guanosine, 24 h): 49.2 % of total radioactivity
- Major metabolites observed in cellular extracts (% of total radioactivity) (rat primary hepatocytes; rat hepatocytes Rs458, 10 μM [^14C]-2′-C-methyl guanosine, 1 h): 94.5 % of total radioactivity
- Major metabolites observed in cellular extracts (% of total radioactivity) (rat primary hepatocytes; rat hepatocytes Rs458, 10 μM [^14C]-2′-C-methyl guanosine, 4 h): 79.8 % of total radioactivity
- Major metabolites observed in cellular extracts (% of total radioactivity) (rat primary hepatocytes; rat hepatocytes Rs458, 10 μM [^14C]-2′-C-methyl guanosine, 8 h): 67.2 % of total radioactivity
- Major metabolites observed in cellular extracts (% of total radioactivity) (rat primary hepatocytes; rat hepatocytes Rs458, 10 μM [^14C]-2′-C-methyl guanosine, 24 h): 47.1 % of total radioactivity
Structure (SMILES): C[C@@]1(O)[C@H](O)[C@@H](CO)O[C@H]1n1cnc2c(=O)[nH]c(N)nc21 [2′-C-methyl guanosine, 9-(2-C-methyl-β-D-ribofuranosyl)guanine, reference compound]
- metabolites observed in medium (% of total radioactivity) (rat primary hepatocytes; rat hepatocytes (lots Rs448, Rs458), 10 μM [^14C]-Compound 1, 24 h): 67% and 68.5% and 65.3% and 69.0% and 65.0%
